Measurements: patent publication US6468983B2, “RNase L activators and antisense oligonucleotides effective to treat telomerase-expressing malignancies” (The Cleveland Clinic Foundation, priority 1997, dated 2002)

What was measured:
telomerase RNA (hTR) = assay: RT-PCR for telomerase RNA in oligonucleotide-treated U251-MG cells; type: cell-based, human; conditions: oligonucleotide 5 μM, 5 hours treatment
Procedure: Chimeric oligonucleotides were synthesised on solid supports and purified as described previously (Torrence et al 1993; Lesiak et al 1993; Xiao et al 1994, 1996; Cirino et al 1997). Tumor cells were seeded at 3×10^5 cells/well (3 ml) in 6-well plates and incubated overnight at 37° C. Cells were then treated with oligonucleotides (5 μM). Five hours later total RNA was isolated by using Trizol solution (GIBCO BRL, Grand Island, N.Y.). Expression of telomerase RNA was determined with RT-PCR. The RNA was reverse transcribed into complementary DNA (cDNA) with random oligos used as a primer, and then the cDNA was diluted three times with buffer 10×PCR buffer (Perkin-Elmer, Norwalk, Conn.) at a final concentration of 1:4. The DNA at each dilution was amplified using primers to antisense and sense sequences on opposite sides of the human telomerase RNA sequence, 5′-[…]-3′ (SEQ ID NO:4) and 5′[…]-3′ […], respectively, or to the GAPDH coding sequence, 5′-[…]-3′ […] and 5′[…]-3′ (SEQ ID NO:7), respectively, producing DNA fragments of 400 bp for telomerase cDNA and 508 bp for the GAPDH cDNA, respectively. The PCR went for 30 cycles (94° C., 1 min; 55° C., 1 min; 72° C., 2 min) for telomerase and 30 cycles (94° C., 1 min; 60° C., 1 min; 74° C., 3 min) for GAPDH. The PCR products were analyzed by 1.2% agarose gel electrophoresis and ethidium bromide staining.
Aliquots of U251-MG cells were treated with the “active” oligonucleotide and the two controls for 5 hours. RNA was then prepared from these cells and subjected to RT-PCR to detect telomerase RNA. […] In contrast, telomerase RNA (hTR) was present in cells treated with the control oligonucleotides; spA2-anti-hTR and spA4-anti-(M6)hTR. Thus, hTR could be selectively destroyed in U251-MG cells. Since the RT-PCR assay is not quantitative, it was not possible to assess whether treatment with the spA2-anti-hTR , which has the fully complementary target sequence, had any antisense effect by itself (see below). […]

U251-MG cells = assay: Cell viability assay, trypan blue dye exclusion, oligonucleotide in water every 12 hr; type: cell-based, human; conditions: 5 micromolar every 12 hr; for cell death / effect on viability (in words): 14 days
Procedure: The cytotoxic effect of 2-5A activator antisense complexes on tumor cells was determined using the trypan blue dye exclusion assay. Tumor cells were seeded at 10^4 cells/well (0.1 ml) in 96-well flat-bottomed plates and incubated overnight at 37° C. Then, oligonucleotides (5 micromolar) in water were added into cells every 12 hr. On successive days the cells were harvested and 25% of the total was examined microscopically to determine the percentage of viable cells, another 25% was replated to continue treatment and the remaining 50% were used for the TRAP assay.
Knowing that hTR could be inactivated by the 2-5A antisense treatment, U251-MG cells were treated every 12 hours over a 14 day period with the same three oligonucleotides. 79% of the cells treated with spA4-anti-hTR were killed over the 14 day period with a significant (50%) reduction in cell viability after only 5 days. […] These experiments have since been repeated on a number of occasions with U251-MG cells to test new batches of oligonucleotides, always with the same results. […] Thus, after 14 days from the initial treatment with spA4-anti-hTR, the viability of U251-MG cells, as shown by Trypan-blue exclusion assays, was suppressed in all cases.

U373 cells = assay: Viable cell count (trypan blue), daily oligonucleotide plus lipofectamine; type: cell-based, human; conditions: U373, 0.5 micromolar daily plus lipofectamine; for cell viability / viable cell numbers reduced by: 7 days
Procedure: (§1) Cells (10,000/well) were seeded on 96 well tissue culture dishes, and treated every 24 hours. A 10× concentrated mixture of oligonucleotides plus lipofectamine in water was prepared containing 5 micromolar oligonucleotide and 80 microgram per ml lipofectamine™ (Gibco/BRL) and incubated for 10 min at room temperature. Media was removed from the cells, 10 microliters of the oligonucleotide/lipofectamine mixture was added directly to the cultured cells followed by 90 microliters of media plus serum. The media was changed with oligonucleotide/lipofectamine treatments every 24 h. Cells were passaged when the control cells reached confluency, and viable cells were counted after staining with Trypan Blue (GibcoBRL). The numbers of cells treated only with lipofectamine were used as the control to calculate percentages of cell survival or viability.

[1] = tested on: renal cell carcinoma cell line, RCC; assay: Viable cell count, daily oligonucleotide plus lipofectamine; type: cell-based, human; conditions: 0.5 micromolar daily plus lipofectamine, 3 days
Procedure: as §1
Similarly, the viability of the breast cancer cell line, MDA468, was reduced by 64% by SpA4-anti-hTR, while the control oligonucleotides reduced cell viability by <20% (FIG. 6). Viability of the human melanoma cell line, A375, was reduced by 43% in three days by SpA4-anti-hTR, while the control oligonucleotides had no effect (FIG. 7). […] Viability of a third human melanoma cell line, SK-MEL-5, was reduced by 43% by SpA4-anti-hTR, with minimal effects by the control oligonucleotides (FIG. 7). Two prostate tumor cells lines, PC3 and DU145, were suppressed by SpA4-anti-hTR treatments by 45% and 60%, respectively (FIGS. 6 and 10). […] The viability of the malignant glioma cell line, U373, was reduced by about 60% in 3 days, with intermediate effects by the control oligonucleotides (FIG. 6). Therefore, the proliferation and survival of every tumor cell type tested was inhibited by SpA4-anti-hTR. […] In contrast, there was no apoptosis detected in the control cells treated with lipofectamine without oligonucleotide (FIG. 12 upper panel).

U251-MG tumors [2] = assay: Subcutaneous xenografts in nude mice, intratumoral oligonucleotide; type: in vivo, Balb/c nude mice
Procedure: (§2) U251-MG and U373 MG tumor cells (1.0×10^6 cells in 0.1 ml serum free DMEM and 0.1 ml Matrigel) were injected subcutaneously into the right flank of 8-12 week-old female Balb/c nude mice (5 mice for each treatment group). Tumor growth was monitored using calipers every 2- or 3-days. Tumor volume (V) was calculated as (L×W^2)/2, where L=length (mm) and W=width (mm). Oligonucleotide treatment was initiated when the tumors reached an average tumor volume of 60-100 mm^3 (about four to five weeks after injection). Oligonucleotides (5 nmol/20 microliter sterile distilled water) were administered by injecting them directly into the tumor every 24 hr for 7-14 days. Some experiments included lipofectamine at 1 microliter per 20 microliters final volume of oligonucleotide solution. Mice were sacrificed by cervical dislocation the day after the final injection and the tumors were removed, frozen rapidly and 12 μm sections were prepared for histological studies. During all of these experiments, which were approved by the CCF Research Programs Committee, the animals were housed and handled in accordance with the National Institutes of Health guidelines.

U373-MG cells = assay: Combination with cisplatin in vitro, MTT assay; type: cell-based, human
Procedure: (§3) FIG. 17. Effect of combining 2-5A-anti-hTR with cisplatin on malignant glioma U373-MG cells in vitro and in vivo. FIG. 17A Tumor cells were treated with 2-5A-anti-hTR (0.5 μM, every 24 hr) mixed with Lipofectamine (1.0 μl/25 μl DMEM) or cisplatin for three days, and their viability was determined by MTT assay. Values represent the means±S.D. FIG. 17B Tumors from U373-MG cells (1.0×10^6 cells in 0.05 ml serum free DMEM and 0.05 ml matrigel) were established subcutaneously in nude mice. After four or five weeks when the tumors were approximately 60-100 mm^3, spA4-anti-hTR (5 nmol/20 μl sterile distilled water) were administrated directly into the tumors daily for 7 days. Cisplatin (1.0 or 5.0 mg/kg/mice) was administered intraperitoneally on Days 1, 3 and 5. Five Mice were used in each treatment group. Tumor volume was then determined using calipers, and the mean sizes ±S.D. were calculated.
To determine if the anti-malignant glioma cell activity of chemotherapeutic agent, cisplatin, could be enhance with SpA4-anti-hTR, a combination therapy protocol was devised (FIG. 17). The point at which 50% cell death was achieved was using 1 microgram per ml of cisplatin plus 0.5 micromolar of SpA4-anti-hTR; whereas in the absence of SpA4-anti-hTR, >10 micrograms per ml of cisplatin were required to achieve 50% cell death (FIG. 17). […] Furthermore, we determined the effect of combining 2-5A-anti-hTR with cisplatin on U373-MG cells in vitro and in vivo. […] The IC50 of cisplatin was reduced from 10.0 to 1.0 μg/ml by combination of spA4-anti-hTR.

U373-MG tumors [3] = assay: Combination with cisplatin on subcutaneous tumors in nude mice; type: in vivo; conditions: cisplatin 1 or 5 mg/kg i.p. Days 1, 3, 5 combined with spA4-anti-hTR 5 nmol intratumoral daily 7 days, versus cisplatin alone
Procedure: as §3
To determine if the anti-malignant glioma cell activity of chemotherapeutic agent, cisplatin, could be enhance with SpA4-anti-hTR, a combination therapy protocol was devised (FIG. 17). […] Furthermore, we determined the effect of combining 2-5A-anti-hTR with cisplatin on U373-MG cells in vitro and in vivo. […]

U373-MG tumors [4] = assay: Subcutaneous xenografts in nude mice, intratumoral oligonucleotide; type: in vivo, Balb/c nude mice; conditions: 5 nmol intratumoral daily for 7 days
Procedure: as §2

U251-MG tumors [5] = assay: In situ end-labeling (TUNEL) of DNA in subcutaneous xenografts; type: in vivo, nude mice; conditions: 5 nmol every day for 7 days
From the text: FIG. 14. In situ end-labeling of DNA in subcutaneous xenografts of nude mice. After treatment with oligonucleotides (5 nmol, every day) for 7 days, the mice were sacrificed and the subcutaneous mass was removed, frozen, and sectioned on a cryostat. The tumor specimens from U251-MG cells were counterstained by hematoxylin and eosin following the TUNEL technique. Arrows show representatives of tumor cells positive for DNA fragmentation (×400). (above) spA4-anti-(M6)hTR, 7 Day; (below) spA4-anti-hTR, 7 Day.
To further determine whether treatment with oligonucleotides induced apoptosis, tumor cells and tissues were stained by the terminal deoxynucleotidyl transferase (TdT)-mediated DUTP nick end labeling (TUNEL) technique using Apo-Tag kit (peroxidase conjugated) (Oncor Inc., Gaithersburg, Md.). The staining of apoptotic cells was done on U373MG cells. Oligonucleotides with lipofectamine was added to the cells every day. The final concentrations were 0.5 micromolar and 8 microgram/ml for oligo and lipofectamine, respectively. […]
U251-MG and U373 MG tumor cells (1.0×10^6 cells in 0.1 ml serum free DMEM and 0.1 ml Matrigel) were injected subcutaneously into the right flank of 8-12 week-old female Balb/c nude mice (5 mice for each treatment group). Tumor growth was monitored using calipers every 2- or 3-days. Tumor volume (V) was calculated as (L×W^2)/2, where L=length (mm) and W=width (mm). […]

Row | Compound | telomerase RNA (hTR) detected by RT-PCR (telomerase RNA (hTR)) | cell death / effect on viability (in words) (U251-MG cells) | cell viability / viable cell numbers reduced by (U373 cells) [%] | effect on growth/viability (in words) [1] | tumor response (in words) (U251-MG tumors [2]; 14 days treatment) | further results
1 | Sp5′A2′p5′A2p-[(Bu)p]2-5′GCG CGG GGA GCA AAA GCA C3′-3′T5′ (antisense GCGCGGGGAGCAAAAGCAC; 5' 2-5A dimer via butanediol linkers, 3'-3' T cap, chemistry not fully specified) [spA2-anti-hTR, control with only two 2′,5′-linked adenylyl residues, defective 2-5A] | present | mild antisense effect | 42 | no reduction in viability | lack of response | cells remained viable (U251-MG cells; over the 14 day treatment period): 80%
2 | N.N.[Cl][Pt][Cl] [cisplatin] | – | – | – | – | – | IC50 of cisplatin (U373-MG cells; U373-MG, in combination with spA4-anti-hTR 0.5 μM every 24 hr plus Lipofectamine, three days, MTT): 1.0 µg/mL; cisplatin required to achieve 50% cell death (U373-MG cells; in the absence of SpA4-anti-hTR): > 10 micrograms per ml; cisplatin at which 50% cell death was achieved (U373-MG cells; plus 0.5 micromolar of SpA4-anti-hTR): 1 microgram per ml; cytotoxic effect of cisplatin on subcutaneous tumors (in words) (U373-MG tumors [3]): significantly enhanced
3 | Sp5′A(2′p5′A)3-Bu2-5′GCC CGG GGT GCA AAT GCA C3′-3′T5′ [spA4-anti-(M3)hTR] | – | – | 76 | – | – | –
4 | Sp5′A(2′p5′A)11-Bu2-5′GCG CGG GGA GCA AAA GCA C3′-3′T5′ (antisense GCGCGGGGAGCAAAAGCAC; 5' 2-5A (A12) via butanediol linkers, 3'-3' T cap, chemistry not fully specified) [spA12-anti-hTR, compound containing twelve 2′,5′-linked adenylyl residues] | – | – | – | – | – | anti-cellular activity compared with spA4-anti-hTR (in words) (U373 cells; after 7 days): considerably more anti-cellular activity
5 | Sp5′A2′p(5′A2p)3-[(Bu)p]25′ GCC CGC GGT GCT AAT GCT C3′-3′T5′ (antisense GCCCGCGGTGCTAATGCTC; 5' tetrameric 2-5A via butanediol linkers, 3'-3' T cap, chemistry not fully specified) [spA4-anti-(M6)hTR, control with functional tetrameric 2-5A and six mismatched nucleotides in the antisense cassette] | present | little, if any, cell death | 43 | no reduction in viability | lack of response | tumor growth (in words) (U251-MG tumors [2]; 5 nmol intratumoral daily for 7 days): continued to increase in size; average net weight of the tumors after treatment (U251-MG tumors [2]; 14 days treatment): 92.0 ± 14.7 mg; increase in tumor size during the treatment period (U251-MG tumors [2]; intratumoral daily for 14 days, relative to starting size): 87%; tumor growth (in words) (U373-MG tumors [4]): continued to increase in size; apoptotic cells observed in tumors (TUNEL) (U251-MG tumors [5]): a few apoptotic cells
